Series [1] in a line: Pharmacokinetic study in rats: dry powder insufflation of TFF-CBD and intravenous CBD solution. The conditions noted are these: plasma, intravenous solution 10 mg/kg, rat, read-out: Cannabidiol concentration in rat plasma, Intravenous. The series is classed as in vivo. How it is done:
A dry powder formulation for inhalation containing 25% (w/w) of Cannabidiol (CBD) was developed using TFF technology, and a pharmacokinetic (PK) study in rats was performed using PennCentury™ DP4 dry powder Insufflator™ with a target delivered dose of 10 mg/kg CBD. […] For comparison and in contrast to the plasma levels of this TFF-CBD inhaled powder, in an inhaled CBD pharmacokinetic study in rats reported by Hložek et al. (2017) using CBD dissolved in a ethanolic solution and vaporized using heat, the inventors calculated based on information in this paper the administered amount of CBD as the delivered dose of 1.798 mg, or 7.98 mg/kg (calculated according Wang et al., 2014; DD=C×RMV×D, where DD is the delivered dose in mg, C is the concentration of drug powder in air in mg/L, RMV is the respiratory minute volume of a rat in L/min (RMV (L/min) for rats is calculated as =0.608×BW (kg)^0.852), and D is the exposure duration in min; based on 20 mg CBD nebulized into 9.5 L dosing chamber; a calculated RMV of 0.17 L/min, an average body weight of 225 g and exposure time of 5 min). […] There is a difference between this TFF-CBD inhaled powder that maintained relatively constant plasma levels over 8 hours compared to the rapid decline in serum levels of inhaled CBD ethanolic solution reported by Hložek et al. (2017). Possible explanations include that the TFF-CBD powder can better avoid lung clearance and that the TFF-CBD powder particles deposited in the lungs continue to dissolve and be absorbed from the lungs to plasma. (Beinborn et al., 2012; Wang et al., 2014; Carvalho et al., 2014). […] For comparison, based on CBD plasma levels of Huntington's disease patients, as reported by Consroe et al. (1991), the orally administered CBD dose of 10 mg/kg/day, which is the recommended maintenance dose of Epidiolex®, for 6 weeks by oral administration resulted a steady state CBD plasma level between 5.9 and 11.2 ng/mL.
To study of plasma level with lower dose of the TFF-CBD powder by dry powder inhalation, another pharmacokinetic study in rats was performed using PennCentury™ DP4 dry powder Insufflator™ with a target delivered dose of 3 mg/kg and 1 mg/kg CBD. […] In other words, TFF-CBD dry powder inhalation was more efficient in delivering CBD than the vaporized CBD liquid. Therefore, delivery of TFF-CBD powder by dry powder inhalation requires a lower dose to reach the similar systemic levels of CBD as compared to vaporized CBD liquid by inhalation, thus showing TFF-CBD will present better efficacy at equivalent doses.

For series [2] the following is noted: Huntington's disease patients, oral 10 mg/kg/day for 6 weeks; cited from earlier work.
For series [3] the following is noted: rat, 7.98 mg/kg, cited from earlier work; for CBD serum level: vaporized CBD, by four hours.

Like-named read-outs stand apart in the source and are kept apart here.

With `C=C(C)[C@@H]1CCC(C)=C[C@H]1c1c(O)cc(CCCCC)cc1O` [Cannabidiol], the concentration at 0.083 h in series [1] (n=5, 0.083 h) came to 4.28 ± 0.891 µg/mL. In addition, the concentration at 0.25 h in series [1] (n=5, 0.25 h) was 1.77 ± 0.297 µg/mL. The concentration at 0.5 h in series [1] (n=5, 0.5 h) was found to be 1.04 ± 0.217 µg/mL. In addition, in series [1] (n=5, 1 h), the concentration at 1 h is 0.601 ± 0.193 µg/mL. Also, the concentration at 2 h in series [1] (n=5, 2 h) turned out to be 0.272 ± 0.112 µg/mL. The concentration at 4 h in series [1] (n=5, 4 h) came out at 0.05 ± 0.023 µg/mL. For the same molecule, the concentration at 8 h in series [1] (n=5, 8 h) came out at 0.0161 ± 0.0113 µg/mL. The “effect of the dosing level in Huntington's disease” value in series [2] was “neither symptomatically effective nor toxic”. Also, the “CBD serum level, peak” value in series [3] (vaporized CBD ethanolic solution, immediately after removal from inhalation dosing chamber) is on record as “about 220 ng/mL”. Besides, the CBD serum level result in series [3] (listed as CBD) is reported as “less than 20 ng/mL”; in series [3], “below 20 ng/mL”.

The values above are taken from patent US20220339227A1, “COMPOSITIONS OF CANNABINOIDS FOR DELIVERY BY INHALATION” (priority 2019, published 2022).
